Counter-ions that a name gives are not always drawn.
Experiments:
[1] = molecular target: T1, B1R receptor of the rat (rB1R) (Rattus norvegicus, UniProt P97583); assay: Functional investigation on the bradykinin 1 receptor (B1R), FLIPR Ca2+ assay, rB1R cells; type: cell-based; settings: test substance 10 μM; CHO K1 cells transfected with rat B1R gene; Fluo-4 Ca2+ signal; agonist Des-Arg9-bradykinin at EC80; % of maximum achievable inhibition; read-out: B1R antagonism, rat [10 μM] % inhibition
T1 construct: expressed in transfected cells; host or cells: CHO K1 cells
T1 sequence (P97583 1-337): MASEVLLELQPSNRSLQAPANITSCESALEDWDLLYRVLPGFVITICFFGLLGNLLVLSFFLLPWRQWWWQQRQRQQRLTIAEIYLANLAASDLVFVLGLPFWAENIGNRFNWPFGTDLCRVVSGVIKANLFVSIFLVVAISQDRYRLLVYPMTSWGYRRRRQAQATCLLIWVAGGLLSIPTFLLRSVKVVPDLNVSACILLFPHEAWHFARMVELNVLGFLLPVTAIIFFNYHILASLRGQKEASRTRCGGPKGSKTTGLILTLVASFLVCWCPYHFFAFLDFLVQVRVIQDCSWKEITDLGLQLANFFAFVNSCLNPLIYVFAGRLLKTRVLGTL
Method in brief: (§1)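 CHO K1 cells stably expressing human or rat B1R, Fluo-4 loaded, read by FLIPR (λex 488, λem 540 nm). Test compound (10 μM) first gave % activation against Lys-Des-[MUT]-bradykinin ≥50 nM (hB1R) or Des-[MUT]-bradykinin 10 μM (rB1R). After 10–20 min, agonist at EC80 was added; % inhibition or IC50 from concentration series, n=2–3, N≥2.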

[2] = molecular target: T2, human B1R receptor (hB1R) (Homo sapiens, UniProt P46663); assay: Functional investigation on the bradykinin 1 receptor (B1R), FLIPR Ca2+ assay, hB1R cells; type: cell-based; settings: test substance 10 μM; CHO K1 cells transfected with human B1R gene; Fluo-4 Ca2+ signal; agonist Lys-Des-Arg9-bradykinin at EC80; % of maximum achievable inhibition; read-out: B1R antagonism, human [10 μM] % inhibition
T2 construct: expressed in transfected cells; host or cells: CHO K1 cells
T2 sequence (P46663 1-353): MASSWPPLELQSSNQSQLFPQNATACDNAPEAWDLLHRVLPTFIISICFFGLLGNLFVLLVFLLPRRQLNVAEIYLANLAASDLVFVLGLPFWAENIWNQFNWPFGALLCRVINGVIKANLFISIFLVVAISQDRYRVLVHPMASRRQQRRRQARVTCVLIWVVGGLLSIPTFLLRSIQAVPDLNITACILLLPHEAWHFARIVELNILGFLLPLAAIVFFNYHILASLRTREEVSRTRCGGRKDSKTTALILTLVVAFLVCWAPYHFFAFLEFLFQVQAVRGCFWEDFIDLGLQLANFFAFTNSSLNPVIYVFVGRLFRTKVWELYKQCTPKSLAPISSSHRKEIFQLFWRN
Method in brief: as §1

COc1cc(C)c(S(=O)(=O)N2CCCC2CCCCS(=O)(=O)N2CCN(C3CCN(C)CC3)CC2)c(C)c1C (stereo not shown) [Example 7, 1-(4-(1-(4-Methoxy-2,3,6-trimethylphenylsulfonyl)pyrrolidin-2-yl)butylsulfonyl)-4-(1-methylpiperidin-4-yl)piperazine]
inhibition at 10 µM [1]: 58% | inhibition at 10 µM [2]: 38%

CN1CCC(N2CCN(S(=O)(=O)CCC[C@@H]3CCCN3S(=O)(=O)c3c(Cl)cc(Cl)cc3Cl)CC2)CC1 [Example 28, (S)-1-(1-Methylpiperidin-4-yl)-4-(3-(1-(2,4,6-trichlorophenylsulfonyl)pyrrolidin-2-yl)propylsulfonyl)piperazine]
inhibition at 10 µM [1]: 91% | inhibition at 10 µM [2]: 104%

Cc1cc(C)c(S(=O)(=O)N2CCCC2CCCCS(=O)(=O)N2CCC(CCN3CCCC3)CC2)c(C)c1 (stereo not shown) [Example 6, 1-(4-(1-(Mesitylsulfonyl)pyrrolidin-2-yl)butylsulfonyl)-4-(2-(pyrrolidin-1-yl)ethyl)piperidine]
inhibition at 10 µM [1]: 44% | inhibition at 10 µM [2]: 61%

Cc1cc(C)c(S(=O)(=O)N2CC[C@@H]2CCCS(=O)(=O)N2CCC(CCN3CCCC3)CC2)c(C)c1 [Example 4, (S)-1-(3-(1-(Mesitylsulfonyl)azetidin-2-yl)propylsulfonyl)-4-(2-(pyrrolidin-1-yl)ethyl)piperidine hydrochloride]
inhibition at 10 µM [1]: 13% | inhibition at 10 µM [2]: 76%

Cc1cc(S(=O)(=O)N2CCC(CCS(=O)(=O)N3CCN(c4ccncc4)CC3)C2)c(C)cc1Cl (stereo not shown) [Example 23, 1-(2-(1-(4-Chloro-2,5-dimethylphenylsulfonyl)pyrrolidin-3-yl)ethylsulfonyl)-4-(pyridin-4-yl)piperazine]
inhibition at 10 µM [1]: 78% | inhibition at 10 µM [2]: 102%

O=S(=O)(CCC[C@H]1CCCN1S(=O)(=O)c1ccc2ccccc2c1)N1CCN(c2ccncc2)CC1 [Example 2, (R)-1-(3-(1-(Naphthalen-2-ylsulfonyl)pyrrolidin-2-yl)propylsulfonyl)-4-(pyridin-4-yl)piperazine hydrochloride]
inhibition at 10 µM [1]: 84% | inhibition at 10 µM [2]: 102%

O=S(=O)(CCC[C@@H]1CCCN1S(=O)(=O)c1ccc(F)c2ccccc12)N1CCC2(CCN(c3ccncc3)CC2)CC1 [Example 78, 3-(3-((S)-1-(4-Fluoronaphthalen-1-ylsulfonyl)pyrrolidin-2-yl)propylsulfonyl)-9-(pyridin-4-yl)-3,9-diazaspiro[5.5]undecane]
inhibition at 10 µM [1]: 93% | inhibition at 10 µM [2]: 91%

O=S(=O)(CCC[C@@H]1CCCN1S(=O)(=O)c1c(Cl)cc(C(F)(F)F)cc1Cl)N1CCC(Oc2ccncc2)CC1 [Example 72, (S)-4-(1-(3-(1-(2,6-Dichloro-4-(Trifluoromethyl)phenylsulfonyl)pyrrolidin-2-yl)propylsulfonyl)piperidin-4-yloxy)pyridine]
inhibition at 10 µM [1]: 45% | inhibition at 10 µM [2]: 38%

COc1cc(C)c(S(=O)(=O)N2CCC[C@H]2CCCS(=O)(=O)N2CCC(Oc3ccncc3)CC2)c(C)c1 [Example 47, (S)-4-(1-(3-(1-(4-Methoxy-2,6-dimethylphenylsulfonyl)pyrrolidin-2-yl)propylsulfonyl)piperidin-4-yloxy)pyridine]
inhibition at 10 µM [1]: 95% | inhibition at 10 µM [2]: 95%

Cc1cc(C)c(S(=O)(=O)N2CCC(CCS(=O)(=O)N3CCN(c4ccncc4)CC3)C2)c(C)c1 (stereo not shown) [Example 20, 1-(2-(1-(Mesitylsulfonyl)pyrrolidin-3-yl)ethylsulfonyl)-4-(pyridin-4-yl)piperazine hydrochloride]
inhibition at 10 µM [1]: 75% | inhibition at 10 µM [2]: 103%

COc1cc(C)c(S(=O)(=O)N2CCC[C@H]2CCCS(=O)(=O)N2CCC3(CCC(Oc4ccncc4)CC3)CC2)c(C)c1 [Example 66, 3-(3-((S)-1-(4-Methoxy-2,6-dimethylphenylsulfonyl)pyrrolidin-2-yl)propylsulfonyl)-9-(pyridin-4-yloxy)-3-azaspiro[5.5]undecane hydrochloride]
inhibition at 10 µM [1]: 102% | inhibition at 10 µM [2]: 100%

COc1cc(C)c(S(=O)(=O)N2c3ccccc3CC2CCCS(=O)(=O)N2CCC3(CCN(c4ccncc4)CC3)CC2)c(C)c1 (stereo not shown) [Example 45, 1-(4-Methoxy-2,6-dimethylphenylsulfonyl)-2-(3-(9-(pyridin-4-yl)-3,9-diazaspiro[5.5]undecan-3-ylsulfonyl)propyl)indoline]
inhibition at 10 µM [1]: 102% | inhibition at 10 µM [2]: 98%

COc1cc(C)c(S(=O)(=O)N2C[C@@H](F)C[C@H]2CCCS(=O)(=O)N2CCC(Oc3ccncc3)CC2)c(C)c1 [Example 36, 4-(1-(3-((2R,4S)-4-Fluoro-1-(4-methoxy-2,6-dimethylphenylsulfonyl)pyrrolidin-2-yl)propylsulfonyl)piperidin-4-yloxy)pyridine]
inhibition at 10 µM [1]: 89% | inhibition at 10 µM [2]: 95%

COc1ccc(S(=O)(=O)N2CCC[C@H]2CCCS(=O)(=O)N2CCC3(CCN(c4ccncc4)CC3)CC2)c2ccccc12 [Example 77, 3-(3-((S)-1-(4-Methoxynaphthalen-1-ylsulfonyl)pyrrolidin-2-yl)propylsulfonyl)-9-(pyridin-4-yl)-3,9-diazaspiro[5.5]undecane]
inhibition at 10 µM [1]: 97% | inhibition at 10 µM [2]: 81%

O=S(=O)(CCC1CCN(S(=O)(=O)c2ccc(Cl)c(Cl)c2)C1)N1CCN(c2ccncc2)CC1 (stereo not shown) [Example 24, 1-(2-(1-(3,4-Dichlorophenylsulfonyl)pyrrolidin-3-yl)ethylsulfonyl)-4-(pyridin-4-yl)piperazine hydrochloride]
inhibition at 10 µM [1]: 33% | inhibition at 10 µM [2]: 62%

Cc1cccc(Cl)c1S(=O)(=O)N1CCC[C@H]1CCCS(=O)(=O)N1CCC(Oc2ccncc2)CC1 [Example 46, (S)-4-(1-(3-(1-(2-Chloro-6-methylphenylsulfonyl)pyrrolidin-2-yl)propylsulfonyl)piperidin-4-yloxy)pyridine]
inhibition at 10 µM [1]: 99% | inhibition at 10 µM [2]: 80%

O=S(=O)(CCC[C@@H]1CCCN1S(=O)(=O)c1cccc2ccccc12)N1CCC(Oc2ccncc2)CC1 [Example 50, (S)-4-(1-(3-(1-(Naphthalen-1-ylsulfonyl)pyrrolidin-2-yl)propylsulfonyl)piperidin-4-yloxy)pyridine]
inhibition at 10 µM [1]: 71% | inhibition at 10 µM [2]: 58%

Cc1cc(S(=O)(=O)N2CCC(CCS(=O)(=O)N3CCN(Cc4cccc(C#N)c4)CC3)C2)c(C)cc1Cl (stereo not shown) [Example 43, 3-((4-(2-(1-(4-Chloro-2,5-dimethylphenylsulfonyl)pyrrolidin-3-yl)ethylsulfonyl)piperazin-1-yl)methyl)benzonitrile hydrochloride]
inhibition at 10 µM [1]: 50% | inhibition at 10 µM [2]: 11%

O=S(=O)(CCC[C@@H]1CCCN1S(=O)(=O)c1ccc(Cl)cc1Cl)N1CCC(Oc2ccncc2)CC1 [Example 51, (S)-4-(1-(3-(1-(2,4-Dichlorophenylsulfonyl)pyrrolidin-2-yl)propylsulfonyl)piperidin-4-yloxy)pyridine]
inhibition at 10 µM [1]: 93% | inhibition at 10 µM [2]: 74%

COc1cc(C)c(S(=O)(=O)N2c3ccccc3CC2CCCS(=O)(=O)N2CCC(O)(c3cccnc3)CC2)c(C)c1 (stereo not shown) [Example 44, 1-(3-(1-(4-Methoxy-2,6-dimethylphenylsulfonyl)indolin-2-yl)propylsulfonyl)-4-(pyridin-3-yl)piperidin-4-ol]
inhibition at 10 µM [1]: 105% | inhibition at 10 µM [2]: 82%

COc1cc(C)c(S(=O)(=O)N2CCCCC2CCCS(=O)(=O)N2CCN(C3CCN(C)CC3)CC2)c(C)c1 (stereo not shown) [Example 26, 1-(3-(1-(4-Methoxy-2,6-dimethylphenylsulfonyl)piperidin-2-yl)propylsulfonyl)-4-(1-methylpiperidin-4-yl)piperazine]
inhibition at 10 µM [1]: 98% | inhibition at 10 µM [2]: 96%

COc1cc(C)c(S(=O)(=O)N2CCC[C@H]2CCCS(=O)(=O)N2CC(N3[C@@H]4CC[C@H]3C[C@H](Oc3ccncc3)C4)C2)c(C)c1 [Example 80, (1R,3s,5S)-8-(1-(3-((S)-1-(4-Methoxy-2,6-ydimethylphenylsulfonyl)pyrrolidin-2-l)propylsulfonyl)azetidin-3-yl)-3-(pyridin-4-yloxy)-8-azabicyclo[3.2.1]octane]
inhibition at 10 µM [1]: 102% | inhibition at 10 µM [2]: 99%

O=S(=O)(CCC[C@@H]1CCCN1S(=O)(=O)c1ccc2ccccc2c1)N1[C@@H]2CC[C@H]1C[C@H](Oc1ccncc1)C2 [Example 57, (1R,3R,5S)-8-(3-((S)-1-(Naphthalen-2-ylsulfonyl)pyrrolidin-2-yl)propylsulfonyl)-3-(pyridin-4-yloxy)-8-azabicyclo[3.2.1]octane]
inhibition at 10 µM [1]: 54% | inhibition at 10 µM [2]: 25%

— patent publication US8119805B2, “Substituted disulfonamide compounds” (Gruenenthal GmbH, priority 2008, dated 2012)
